Experimental data reported in US11261210B2, “Glycosylated antitumor ether lipids as novel cancer stem cell cytotoxic agents” (UNIVERSITY OF MANITOBA, priority 2012, dated 2022).

Key:
[1] = system: BT-474 stem cell tumorspheres; assay: Viability of BT-474 stem cell tumorspheres (MTS assay); type: cell-based, human; details: 6 days
Protocol: FIG. 6. Effect of β-O-Gln, α-O-Gln, β-C-Gln and ET-18-OCH3 on the viability of BT-474 stem cell tumorspheres. BT-474 cancer stem cells were grown for 7 days in ultra low adhesion 6 well plates. The tumorspheres formed were harvested, trypsinised and cell numbers were determined. Equal numbers of cells were dispersed into 48-well plates in mammocult medium and incubation was under static conditions. Wells with only medium but no cells were treated in an identical manner to serve as blanks. After spheres were formed, β-O-Gln, α-O-Gln, β-C-Gln or ET-18-OCH3 (0, 10, 20, 30 μM) were added and incubation was for a total of 6 days. At the end of the incubation, the MTS reagent was added to each well and the plates were rotated on a Nutator mixer in a 5% CO2 incubator for 4 h. The absorbance of each well was read at 470 nm. The results are the means±standard deviation of 4 independent determinations.
Cell viability assay: Cell viability was determined by the Cell Titre 96 Aqueous One solution proliferation assay ((MTS assay; Promega) according to the instructions of the manufacturer.
The viability of the material at the end of the incubation was determined using the MTS assay. […] In cells incubated with 10 μM of β-C-Gln, 90% of the cells were not viable. […] In contrast, in experiments with ET-18-OCH3, 10 or 20 μM ET-18-OCH3 had little effect on the viability of BT-474 spheroids and at a concentration of 30 μM viability was around 45% relative to controls. The results of the integrity studies correlate well with the viability studies.
We also investigated the effect of α-O-Galn, β-O-Galn or α-O-Mann on the viability of BT-474 spheroids. The spheroids were incubated with the compounds for 6 days and the viability was assessed by the MTS assay. […] Viability was down to around 10% at 10 μM concentration of the compound. […] At a concentration of 30 μM a significant proportion (26-32%) of the BT-474 cancer stem cells were still viable. The cytotoxic efficacy of GAELs is dependent on the type of sugar moiety and the anomeric form in some instances.

cancer stem cells = assay: Tumorsphere formation by freshly sorted cancer stem cells; type: cell-based, human; details: added to freshly sorted cancer stem cells, 10 μM and above, 6 days
From the text: Breast cancer stem cell enriched cell population was obtained by staining breast cancer cell lines BT-474 and JIMT-1 for aldehyde dehydrogenase 1 (ALDH1) using the assay kit from Stem Cell Technologies (Vancouver BC, Canada) according to the instructions of the manufacturer with the appropriate controls. BT-474 is a ductal carcinoma cell line (Lasfargues E Y, Coutinho W G, Dion A S (1979) A human breast tumor cell line (BT-474) that supports mouse mammary tumor virus replication. In Vitro 15, 723-729) while JIMT-1 is a carcinoma cell line that is resistant to herceptin (Tanner M, Kapanen A J, Junttila T, Raheem O, Grenman S, Elo J, Elenius K, Isola J (2004). Characterization of a novel cell line established from a patient with herceptin-resistant breast cancer. Mol Cancer Ther 3, 1585-1592). Following the staining, the cells stained for ALDH1 were sorted from the bulk population by flow cytometry on a 4 laser MoFloXPP high speed/pressure cell sorter. The cells were pelleted by centrifugation, resuspended in supplemented Mammocult medium (Stem Cell Technologies) and dispersed into ultra-low adhesive 6-well plates or 35 mm dishes for 7 days to allow the formation of spheroids (mammospheres). After 7 days, the spheres were separated from single cells (dead non-stem cells) by sieving the contents of the well through a […] nylon cell strainer (BD Falcon). The spheres retained in the sieve are washed with Hanks buffer and subsequently trypsinised to obtain a single cell suspension of cancer stem cells. The cell numbers were determined with a Coulter ZM counter and the cells were seeded into the appropriate low adhesion tissue culture ware for various studies.
AEL solutions in ethanol were diluted into supplemented mammocult medium generally at twice the desired final concentration. A volume equal to that in the wells was added to dilute the drug to the desired concentration in each well. Subsequently any further addition of drug to the wells, utilized AEL solution prepared at the desired concentration. […]

## CCCCCCCCCCCCCCCCOC[C@H](CO[C@@H]1O[C@H](CO)[C@@H](O)[C@H](O)[C@H]1N)OC [β-O-Gln, 1-O-hexadecyl-2-O-methyl-3-O-(2′-amino-2′-deoxy-β-D-glucopyranosyl)-sn-glycerol]
[1]; 10 μM
  loss of viability: about 60%
[1]; 20 or 30 μM
  loss of viability: total loss of viability
Cancer stem cells
  spheroid formation: unable to form spheroids
